Experimental data as given in patent US20080306096A1, “Quinazoline Derivatives, Process for Their Preparation and Their Use as Anti-Cancer Agents” (ASTRAZENECA AB, priority 2005, published 2008).

These compounds were tested against T1, human recombinant, purified wild type His-B-Raf protein kinase (Homo sapiens, UniProt P15056) (assay: B-Raf In Vitro ELISA Assay). Details: phosphorylation of MEK1; 2.5 nM B-Raf, 0.15 μM MEK1, 10 μM ATP; 1 hour preincubation at 25° C.
T1 construct: His
Type: biochemical
Protocol: B-Raf In Vitro ELISA Assay
Activity of human recombinant, purified wild type His-B-Raf protein kinase was determined in vitro using an enzyme-linked immunosorbent assay (ELISA) assay format, which measures phosphorylation of the B-Raf substrate, human recombinant, purified His-derived (detagged) MEK1. The reaction utilized 2.5 nM B-Raf, 0.15 μM MEK1 and 10 μM adenosine triphosphate (ATP) in 40 mM N-(2-hydroxyethyl)piperazine-N′-(2-ethanesulfonic acid hemisodium salt (HEPES), 5 mM 1,4-dithio-DL-threitol (DTT), 10 mM MgCl2, 1 mM ethylenediaminetetraacetic acid (EDTA) and 0.2 M NaCl (1×HEPES buffer), with or without compound at various concentrations, in a total reaction volume of 25 μl in 384 well plates. B-Raf and compound were preincubated in 1×HEPES buffer for 1 hour at 25° C. Reactions were initiated with addition of MEK1 and ATP in 1×HEPES buffer and incubated at 25° C. for 50 minutes and reactions stopped by addition of 10 μl 175 mM EDTA (final concentration 50 mM) in 1×HEPES buffer. 5 μl of the assay mix was then diluted 1:20 into 50 mM EDTA in 1×HEPES buffer, transferred to 384 well black high protein binding plates and incubated overnight at 4° C. Plates were washed in tris buffered saline containing 0.1% 5 Tween20 (TBST), blocked with 50 μl Superblock (Pierce) for 1 hour at 25° C., washed in TBST, incubated with 50 μl rabbit polyclonal anti-phospho-MEK antibody (Cell Signaling) diluted 1:1000 in TBS for 2 hours at 25° C., washed with TBST, incubated with 50 μl goat anti-rabbit horseradish peroxidase-linked antibody (Cell Signaling) diluted 1:2000 in TBS for 1 hour at 25° C. and washed with TBST. 50 μl of fluorogenic peroxidase substrate (Quantablu 10-Pierce) was added and following incubation for 45-60 minutes, 50 μl QuantabluSTOP (Pierce) was added. Blue fluorescent product was detected at excitation 325 and emission 420 using a TECAN Ultra plate reader. Data was graphed and IC50s calculated using Excel Fit (Microsoft).

T1 sequence (P15056 whole entry): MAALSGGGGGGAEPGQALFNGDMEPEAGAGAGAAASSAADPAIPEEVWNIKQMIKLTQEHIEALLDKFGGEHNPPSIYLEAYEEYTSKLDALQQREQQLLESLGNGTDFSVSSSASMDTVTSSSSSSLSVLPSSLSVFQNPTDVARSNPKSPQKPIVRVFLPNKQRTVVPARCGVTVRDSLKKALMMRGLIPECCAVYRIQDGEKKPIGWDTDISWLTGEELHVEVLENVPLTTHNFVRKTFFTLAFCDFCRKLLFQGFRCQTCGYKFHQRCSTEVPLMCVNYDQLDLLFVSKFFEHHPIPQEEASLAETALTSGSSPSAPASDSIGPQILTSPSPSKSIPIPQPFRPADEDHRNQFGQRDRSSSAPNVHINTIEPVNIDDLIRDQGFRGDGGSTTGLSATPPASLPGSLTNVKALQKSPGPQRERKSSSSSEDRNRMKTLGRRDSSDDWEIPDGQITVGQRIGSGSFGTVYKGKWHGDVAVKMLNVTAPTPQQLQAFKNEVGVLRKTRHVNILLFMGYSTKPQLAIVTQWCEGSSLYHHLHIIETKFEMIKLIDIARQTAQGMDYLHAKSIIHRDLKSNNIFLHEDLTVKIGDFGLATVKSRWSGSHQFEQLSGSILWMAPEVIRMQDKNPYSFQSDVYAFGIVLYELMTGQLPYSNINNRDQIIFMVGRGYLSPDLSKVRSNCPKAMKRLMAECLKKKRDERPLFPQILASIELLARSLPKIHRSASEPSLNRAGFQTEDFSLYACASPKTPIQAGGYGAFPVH

Compared with `COc1cc2ncnc(Nc3cc(NC(=O)c4cccc(C5(C#N)CCC5)c4)ccc3C)c2cc1OC` [Example 7, 3-(1-Cyanocyclobutyl)-N-{3-[(6,7-dimethoxyquinazolin-4-yl)amino]-4-methylphenyl}benzamide], `COc1cc2ncnc(Nc3cc(NC(=O)c4cc(C(F)(F)F)ccc4F)ccc3C)c2cc1OC` [Example 15, N-{3-[(6,7-Dimethoxyquinazolin-4-yl)amino]-4-methylphenyl}-2-fluoro-5-(trifluoromethyl)benzamide] is 1.9-fold higher in IC50: 193 nM for the first, 370 nM for the second. The first is the more potent here.

`COc1cc2c(Nc3cc(NC(=O)c4cccc(C(C)(C)C#N)c4)ccc3C)ncnc2cc1OCc1ccccc1` [Example 5, N-(3-{[7-(Benzyloxy)-6-methoxyquinazolin-4-yl]amino}-4-methylphenyl)-3-(1-cyano-1-methylethyl)benzamide] was tested, and the IC50 was 1100 nM.
